Measured values taken from PubChem BioAssay (NCI).
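In this assay, cells in 96-well plates receive the compound at five concentrations for 48 hours. Endpoints are linearly interpolated between the surrounding concentrations. GI50: concentration for 50% inhibition of growth. Definition used: TGI = concentration required for complete inhibition of growth.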

How the values were obtained:
Assay in all cases: NCI tumour cell line growth inhibition, 48 h
EKVX NSCLC = system: EKVX NSCLC
OVCAR-8 ovarian = system: OVCAR-8 ovarian
DU-145 prostate = system: DU-145 prostate
HT29 colon = system: HT29 colon
RPMI-8226 leukemia = system: RPMI-8226 leukemia
HCT-116 colon = system: HCT-116 colon
HOP-62 NSCLC = system: HOP-62 NSCLC
786-0 renal = system: 786-0 renal
MALME-3M melanoma = system: MALME-3M melanoma
HCC-2998 colon = system: HCC-2998 colon
NCI-H522 lung = system: NCI-H522 lung
HOP-92 NSCLC = system: HOP-92 NSCLC
TK-10 renal = system: TK-10 renal
OVCAR-3 ovarian = system: OVCAR-3 ovarian
NCI/ADR-RES ovarian = system: NCI/ADR-RES ovarian
HCT-15 colon = system: HCT-15 colon
ACHN renal = system: ACHN renal
OVCAR-4 ovarian = system: OVCAR-4 ovarian
MDA-MB-435 = system: MDA-MB-435
HS 578T breast = system: HS 578T breast
LOX IMVI melanoma = system: LOX IMVI melanoma
NCI-H23 lung = system: NCI-H23 lung
M14 melanoma = system: M14 melanoma
MCF7 breast = system: MCF7 breast
T-47D breast = system: T-47D breast
OVCAR-5 ovarian = system: OVCAR-5 ovarian
MDA-MB-468 breast = system: MDA-MB-468 breast
UO-31 renal = system: UO-31 renal
UACC-257 melanoma = system: UACC-257 melanoma
IGROV1 ovarian = system: IGROV1 ovarian

CCOP(=O)(CC(F)(F)C(F)(F)F)OCC
TGI (EKVX NSCLC): 12.6 µM
GI50 (OVCAR-8 ovarian): 3.79 µM
TGI (OVCAR-8 ovarian): 55.3 µM
GI50 (DU-145 prostate): 5.56 µM
TGI (DU-145 prostate): 18.4 µM
GI50 (HT29 colon): 2.25 µM
TGI (HT29 colon): 4.96 µM
GI50 (RPMI-8226 leukemia): 3.44 µM
TGI (RPMI-8226 leukemia): 13.1 µM
GI50 (HCT-116 colon): 1.86 µM
TGI (HCT-116 colon): 4.86 µM
GI50 (HOP-62 NSCLC): 22.2 µM
TGI (HOP-62 NSCLC): 54.4 µM
GI50 (786-0 renal): 4.2 µM
TGI (786-0 renal): 16.8 µM
GI50 (MALME-3M melanoma): 1.83 µM
TGI (MALME-3M melanoma): 3.62 µM
GI50 (HCC-2998 colon): 12.2 µM
TGI (HCC-2998 colon): 25.2 µM
GI50 (NCI-H522 lung): 0.505 µM
TGI (NCI-H522 lung): 1.86 µM
GI50 (HOP-92 NSCLC): 3.37 µM
TGI (HOP-92 NSCLC): 10.7 µM
GI50 (TK-10 renal): 3.11 µM
TGI (TK-10 renal): 7.27 µM
GI50 (OVCAR-3 ovarian): 2.76 µM
TGI (OVCAR-3 ovarian): 7.98 µM
GI50 (NCI/ADR-RES ovarian): 2.31 µM
TGI (NCI/ADR-RES ovarian): 5.95 µM
GI50 (HCT-15 colon): 1.56 µM
TGI (HCT-15 colon): 3.73 µM
GI50 (ACHN renal): 1.86 µM
TGI (ACHN renal): 3.55 µM
GI50 (OVCAR-4 ovarian): 8.98 µM
TGI (OVCAR-4 ovarian): 23.9 µM
GI50 (MDA-MB-435): 3.31 µM
TGI (MDA-MB-435): 14.5 µM
GI50 (HS 578T breast): 5.55 µM
TGI (HS 578T breast): 94 µM
GI50 (LOX IMVI melanoma): 1.78 µM
TGI (LOX IMVI melanoma): 3.91 µM
GI50 (NCI-H23 lung): 7.93 µM
TGI (NCI-H23 lung): 23.9 µM
GI50 (M14 melanoma): 2.02 µM
TGI (M14 melanoma): 5.31 µM
GI50 (MCF7 breast): 2.45 µM
TGI (MCF7 breast): 12.1 µM
GI50 (T-47D breast): 2.19 µM
TGI (T-47D breast): 7.23 µM
GI50 (OVCAR-5 ovarian): 17.6 µM
TGI (OVCAR-5 ovarian): 32.5 µM
GI50 (MDA-MB-468 breast): 1.24 µM
TGI (MDA-MB-468 breast): 2.99 µM
GI50 (UO-31 renal): 2.82 µM
TGI (UO-31 renal): 10.9 µM
GI50 (UACC-257 melanoma): 2.57 µM
TGI (UACC-257 melanoma): 11.1 µM
GI50 (IGROV1 ovarian): 18.5 µM
TGI (IGROV1 ovarian): 38.8 µM
